# From patent publication US8697379B2, “Lysosomotropic inhibitors of acid ceramidase” (MUSC Foundation for Research Development, priority 2008, dated 2014)
# Where “and” joins values, the source holds several entries; their conditions need not be identical. Equal values may be shown once. Read-outs that look alike come from different tables or passages of the source.
# Key:
# [1] = system: MCF-7 breast carcinoma cells; test: MTT cell viability assay in MCF-7 breast carcinoma cells; type: cell-based, human
# Experimental: Class E compounds were administrated to cells capable of undergoing differentiation in amounts effective to induce differentiation of several cancer cell lines: MCF-7, PPC1, SCC14a, A549, and J3DR4. Cell viability assay was performed by the 3-(4,5-Dimethylthiazol-2-yl)-2,5-diphenyltetrazolium bromide (MTT) assay. Cells were seeded into 96-well plate overnight before treatment with increasing drug concentrations (0-100 μM) as previously described. See Hansen et al., J. Immunol. Methods, 119, 203-210 (1989). After treatment, plates were incubated for an additional period of time (24-72 h). Changes in cell numbers were determined and expressed as a percentage of the untreated controls.
# Class E prodrugs were administrated to MCF-7 cells capable of undergoing differentiation in amounts effective to induce differentiation. Cell viability assay was performed by the MTT assay. Cells were seeded into 96-well plate overnight before treatment with increasing drug concentrations (0-100 μM) as previously described. See Hansen et al., J. Immunol. Methods, 119, 203-210 (1989). After treatment, plates were incubated for an additional period of time (24-72 h). Changes in cell numbers were determined and expressed as a percentage of the untreated controls. 50% inhibitory concentrations were determined by comparing cell number changes in prodrug treated samples to control samples.
# [2] = system: cellular sphingolipids (Cn-Cer, Sph, S1P) in MCF-7 cells; test: Endogenous ceramide, Sph and S1P levels in MCF-7 cells by LC-MS/MS; type: cell-based, human
# Experimental: (§1) Effects of the inhibitors on the cellular activity of ACDase were determined using cell lysate from the cultured cells previously treated with increasing concentrations of drugs. For this type of assay, the drugs are allowed to enter the cell for a specific time, then cell lysates were prepared by homogenization and assays performed as described above. Effects on endogenous Cers and Sph were determined using LC-MS/MS analysis as previously described. See Bielawska et al., Bioorg. Med. Chem., 16, 1032-1045 (2008); and Bielawska et al., Methods, 39, 82-91 (2006). Final results were expressed as the level of the particular sphingolipid (SPL)/phospholipids (Pi) determined from the Bligh and Dyer lipid extract and expressed as SPLs/Pi (pmol/nmol).
# [3] = system: lysosomes; test: Lysosomal stability by FACS analysis with LYSOTRACKER red; type: cell-based; details: for lysosomal stability: 30 μM
# Experimental: Effects of Class E inhibitors on ACDase protein degradation were determined by Western blotting as previously described. See Bielawska et al., Bioorg. Med. Chem., 16, 1032-1045 (2008); Liu et al., Front. Biosci., 13, 2293-2298 (2008); and Holman et al., Cancer Chemother. Pharmacol., 61, 231-242 (2008). Lysosomal stability and mitochondrial stability were determined by FACS analysis using LYSOTRACKER™ red (Molecular Probes, Eugene, Oreg., United States of America) or JC-1 mitochondrial dye (Molecular Probes, Eugene, Oreg., United States of America) as previously described. See Holman et al., Cancer. Chemother. Pharmacol., 61, 231-242 (2008).
# [4] = Breakdown of prodrugs under the assay conditions; type: in vitro ADME; details: under the various assay conditions; preliminary
# [5] = biological target: T1, acid ceramidase (ACDase) (Homo sapiens, UniProt Q13510); test: In vitro ACDase activity assay, release of radioactive palmitic acid from [3H]C16-Cer in MCF-7 cell lysate; type: biochemical; parameters: C16-Cer as a substrate and MCF-7 cell lysate as an enzymatic source; endogenous in cells; host or cells: MCF-7 cell lysate
# T1 sequence (Q13510 22-142 limits assumed): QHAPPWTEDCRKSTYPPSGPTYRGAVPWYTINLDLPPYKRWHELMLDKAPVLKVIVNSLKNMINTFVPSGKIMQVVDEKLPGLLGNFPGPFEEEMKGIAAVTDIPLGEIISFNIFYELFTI
# T1 sequence (Q13510 143-395 limits assumed): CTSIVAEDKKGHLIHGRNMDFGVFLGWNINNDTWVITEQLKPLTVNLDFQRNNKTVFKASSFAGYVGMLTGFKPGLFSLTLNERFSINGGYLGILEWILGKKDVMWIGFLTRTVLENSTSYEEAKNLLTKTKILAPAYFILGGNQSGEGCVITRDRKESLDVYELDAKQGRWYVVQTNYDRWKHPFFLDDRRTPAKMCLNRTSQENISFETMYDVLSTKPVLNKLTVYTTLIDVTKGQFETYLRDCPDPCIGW
# Experimental: The in vitro assay was carried out according to a previously described procedure (see Zeidan et al., J. Biol. Chem., 281, 24695-24703 (2006)) using [^3H] C16-Cer as a substrate and MCF-7 cell lysate as an enzymatic source. Briefly, cell lysate was prepared under acidic conditions (i.e., pH 4.5, 50 mM sodium acetate, 5 mM magnesium chloride, 1 mM EDTA and 0.5% Triton X-100), and protein level was determined using BCA protein assay kit (Pierce, Rockford, Ill., United States of America). ACDase activity was determined based on the amount of the released radioactive palmitic acid counted by LS 6500 multi-purpose scintillation counter (Beckman Coulter, Inc., Fullerton, Calif., United States of America). The results are presented as percentage of control.
# [6] = system: Caspase 3/7; test: Apo-ONE Homogeneous Caspase 3/7 assay in MCF-7 cells; type: cell-based, human; details: 24 h incubation
# Experimental: The apoptotic effect of LCL464 was also investigated in MCF-7 cells via its effect on Caspase 3/7, a group of cysteine proteases that mediate execution. This can be activated by apoptotic signals from both death receptor and intracellular/mitochondrial pathways. Briefly, MCF-7 cells were seeded at a density of 5×10^3/50 μL/well overnight in 96 well plates. Then cells were treated with vehicle or diluted LCL464. After 8 and 24 hours incubation, Caspase 3/7 activities were measured using the Apo-ONE Homogeneous Caspase 3/7 Assay Kit according to the manufacturer's instructions (Promega, Madison, Wis., United States of America). LCL464 causes a dose dependent induction of apoptosis following 24 h incubation, causing increase of Caspase 3/7 activities to 140% and 200% for 10 μM and 20 μM, respectively.
# [7] = biological target: T1, acid ceramidase (ACDase); test: Cellular activity of ACDase: MCF-7 cells treated with drug, then lysed and assayed; type: cell-based; parameters: C16-Cer as a substrate and MCF-7 cell lysate as an enzymatic source; endogenous in cells; host or cells: MCF-7 cell lysate; details: 10 μM, 2 h of treatment
# Experimental: as §1
# [8] = system: L929 cells; test: TNF-α induced PGE2 release from L929 mouse fibroblast cells; type: cell-based; details: TNF-α treated L929 mouse fibroblast cells; preliminary data
# [9] = system: lysosomes; details: previously studied non-Class E inhibitor; Bielawska et al. 2008; cited from earlier work
# [10] = 48 hours of treatment, Example 6, read-out: IC50, MCF-7 cell growth (50% of surviving cells as compared to the control)
# [11] = 10 μM, 5 hours, and time course
# [12] = MCF-7 cells, MTT, 24 hours, Example 7, hydrochloride, read-out: IC50/24 h
compound,measurement,setting,value
"O=C(CCCCCCCCCCCN1CCOCC1)N[C@H](CO)[C@H](O)c1ccc([N+](=O)[O-])cc1 [LCL449, (1R,2R)-2-[N-(12′-{1″-morpholine}-dodecanoyl)-amino]-1-(4″-nitrophenyl)-1,3-propandiol]",IC50,[1]; [10],49.9 µM
CCCCCCCCCCCCCC(=O)N[C@H](COC(=O)CN(C)C)[C@H](OC(=O)CN(C)C)c1ccc([N+](=O)[O-])cc1.Cl [LCL521],cellular level of Sph and S1P,[2]; [11],decreased
same,levels of pro-apoptotic C16- and C18-Cer and total ceramide,[2]; [11],increased
same,delivery to the lysosomes (LYSOTRACKER Red fluorescence),"[3]; 5 μM or 10 μM, 1 hour",appears to be delivered to the lysosomes
same,breakdown / metabolism of the prodrug,[4],slowly metabolized to the mono-ester LCL581 and B13
same,effect on acid ceramidase activity in vitro,[5]; concentration dependent (FIG. 13),inhibited acid ceramidase in vitro
"CCCCCCCCCCCCCC(=O)N[C@H](COC(=O)CN(C)C)[C@H](OC(=O)CN(C)C)c1ccc([N+](=O)[O-])cc1.Cl [LCL521, (1R,2R)-2-[N-tetradecanoyl)-amino]-1-(4″-nitrophenyl)-1,3-propandiol-1,3-O-bis-dimethylglycine hydrochloride]",IC50,[1]; [12],~8.9 µM and 8.9 µM
same,IC50,"[1]; MCF-7 cells, MTT, 48 hours, Example 7, read-out: IC50/48 h",8.67 µM
same,IC50,"[1]; MCF-7 cells, MTT, 72 hours, Example 7, read-out: IC50/72 h",7.45 µM
CCCCCCCCCCCCCC(=O)N[C@H](CO)[C@H](OC(=O)CN(C)C)c1ccc([N+](=O)[O-])cc1.Cl [LCL522],regulation of cellular sphingolipids,"[2]; 10 μM, 5 hours",behaved similarly to B13
same,breakdown / metabolism of the prodrug,[4],breaks down under the various assay conditions to form B13
"CN(C)CCCCCCCCCCCC(=O)N[C@H](CO)[C@H](O)c1ccc([N+](=O)[O-])cc1 [LCL464, (1R,2R)-2-[N-(12′-N,N-dimethylamino-dodecanoyl)-amino]-1-(4″-nitrophenyl)-1,3-propandiol]","level of C18-Cer, % of control","[2]; 50 μM, at 24 hours",~900%
same,level of C16-Cer (percentage of control),"[2]; 50 μM, early effect",~240%
same,concentration at which elevation of C18-Cer was observed,"[2]; 24 hours, dose range 0-50 μM",above 20 μM
same,lysosomal dysfunction (LYSOTRACKER Red fluorescence),"[3]; 10 μM, 1 and 5 hours of treatment",did not cause lysosomal dysfunction
same,lysosomal stability,[3]; 1 h,40%
same,lysosomal stability,[3]; 5 h,61%
same,lysosomal stability,[3]; 24 h,> 100%
same,IC50,[1]; [10],10.2 µM
same,IC50,"[1]; 72 hr treatment, Example 6, read-out: IC50, MCF-7 cell growth",7.2 µM
same,Caspase 3/7 activities (percentage of control),[6]; 10 μM,140%
same,Caspase 3/7 activities (percentage of control),[6]; 20 μM,200%
same,inhibition of ACDase in vitro,"[5]; 50 μM inhibitor, [3H]C16-Cer substrate",55%
same,ACDase inhibition at the cellular level,[7],65%
"CCCCCCCCCCCCCC(=O)N[C@H](C)[C@@H](O)c1ccccc1 [D-MAPP, D-erythro-2-(N-myristolyamino)-1-phenyl-1-propanol]",release of PGE2,[8],inhibited
"CCCCCCCCCCCCCCN[C@H](CO)[C@H](O)c1ccc([N+](=O)[O-])cc1 [LCL204, (1R,2R)-2-N-(tetradecylamino)-1-(4′-nitrophenyl)-1,3-propandiol]",lysosomal stability as compared to the control (permanent destabilization),[9],~90%
same,ACDase inhibition at the cellular level,[7],about 35%
"CCCCCCCCCCCCCC(=O)N[C@H](CO)[C@H](OC(=O)CN(C)C)c1ccc([N+](=O)[O-])cc1.Cl [LCL522, (1R,2R)-2-[N-tetradecanoyl)-amino]-1-(4″-nitrophenyl)-1,3-propandiol-1-O-dimethylglycine hydrochloride]",IC50,[1]; [12],~6.5 µM and 6.5 µM
